Measured values taken from patent US20100317624A1 (ASTRAZENECA AB, priority 2009, published 2010).
Where a name gives a salt, the structure may show the parent alone.

Target: S. aureus GyrB ATPase (Staphylococcus aureus, UniProt P0A0K8)
Assay: S. aureus GyrB ATPase inhibition (ammonium molybdate/malachite green phosphate detection)
Format: biochemical
Settings: compound at 1 μM; inhibition of S. aureus GyrB ATPase; read-out: Percent Inhibition (1 μM)
Protocol: S. aureus GyrB ATPase Inhibition Activity: Compounds may be tested for inhibition of S. aureus GyrB ATPase activity using an ammonium molybdate/malachite green-based phosphate detection assay (Lanzetta, P. A., L. J. Alvarez, P. S. Reinach, and O. A. Candia, 1979, 100: 95-97). Assays can be performed in multiwell plates in 30 μl reactions containing: 50 mM Hepes buffer pH 7.5, 75 mM ammonium acetate, 8.0 mM magnesium chloride, 0.5 mM ethylenediaminetetraacetic acid, 5% glycerol, 1.0 mM 1,4-Dithio-DL-threitol, 200 nM bovine serum albumin, 1.0 μg/ml sheared salmon sperm DNA, 250 pM E. coli GyrA, 250 pM S. aureus GyrB, 250 μM ATP, and compound in dimethylsulfoxide. Reactions can be quenched with 30 μl of ammonium molybdate/malachite green detection reagent containing 1.2 mM malachite green hydrochloride, 8.5 mM ammonium molybdate tetrahydrate, and 1 M hydrochloric acid. Plates can be read in an absorbance plate reader at 650 nm and percent inhibition values can be calculated using dimethylsulfoxide (2%)-containing reactions as 0% inhibition and EDTA-containing ([…]) reactions as 100% inhibition controls. An IC50 measurement of compound potency for each compound can be determined from reactions performed in the presence of 10 different compound concentrations.

Sequence of S. aureus GyrB ATPase (P0AES4 whole entry): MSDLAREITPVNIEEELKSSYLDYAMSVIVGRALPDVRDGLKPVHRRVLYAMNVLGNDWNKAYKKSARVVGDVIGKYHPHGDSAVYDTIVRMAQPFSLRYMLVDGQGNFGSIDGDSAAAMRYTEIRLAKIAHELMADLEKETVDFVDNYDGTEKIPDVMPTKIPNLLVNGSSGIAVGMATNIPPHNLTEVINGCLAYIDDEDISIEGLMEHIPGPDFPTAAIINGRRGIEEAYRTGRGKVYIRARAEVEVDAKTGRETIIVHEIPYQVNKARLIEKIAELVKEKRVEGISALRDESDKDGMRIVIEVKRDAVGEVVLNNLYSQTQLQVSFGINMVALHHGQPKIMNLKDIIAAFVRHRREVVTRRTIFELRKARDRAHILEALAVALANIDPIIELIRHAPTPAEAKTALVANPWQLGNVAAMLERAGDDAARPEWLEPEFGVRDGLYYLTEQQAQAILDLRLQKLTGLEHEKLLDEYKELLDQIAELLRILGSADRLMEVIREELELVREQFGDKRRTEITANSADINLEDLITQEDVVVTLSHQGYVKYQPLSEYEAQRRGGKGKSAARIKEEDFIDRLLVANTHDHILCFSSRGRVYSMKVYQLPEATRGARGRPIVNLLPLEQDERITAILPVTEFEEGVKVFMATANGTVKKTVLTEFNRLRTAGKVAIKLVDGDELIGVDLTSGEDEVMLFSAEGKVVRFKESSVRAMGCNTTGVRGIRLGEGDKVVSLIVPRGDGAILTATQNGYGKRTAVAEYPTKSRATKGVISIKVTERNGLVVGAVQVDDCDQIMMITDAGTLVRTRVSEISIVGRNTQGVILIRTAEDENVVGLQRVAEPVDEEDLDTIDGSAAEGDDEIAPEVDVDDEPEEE
Sequence of S. aureus GyrB ATPase (P0A0K8 whole entry): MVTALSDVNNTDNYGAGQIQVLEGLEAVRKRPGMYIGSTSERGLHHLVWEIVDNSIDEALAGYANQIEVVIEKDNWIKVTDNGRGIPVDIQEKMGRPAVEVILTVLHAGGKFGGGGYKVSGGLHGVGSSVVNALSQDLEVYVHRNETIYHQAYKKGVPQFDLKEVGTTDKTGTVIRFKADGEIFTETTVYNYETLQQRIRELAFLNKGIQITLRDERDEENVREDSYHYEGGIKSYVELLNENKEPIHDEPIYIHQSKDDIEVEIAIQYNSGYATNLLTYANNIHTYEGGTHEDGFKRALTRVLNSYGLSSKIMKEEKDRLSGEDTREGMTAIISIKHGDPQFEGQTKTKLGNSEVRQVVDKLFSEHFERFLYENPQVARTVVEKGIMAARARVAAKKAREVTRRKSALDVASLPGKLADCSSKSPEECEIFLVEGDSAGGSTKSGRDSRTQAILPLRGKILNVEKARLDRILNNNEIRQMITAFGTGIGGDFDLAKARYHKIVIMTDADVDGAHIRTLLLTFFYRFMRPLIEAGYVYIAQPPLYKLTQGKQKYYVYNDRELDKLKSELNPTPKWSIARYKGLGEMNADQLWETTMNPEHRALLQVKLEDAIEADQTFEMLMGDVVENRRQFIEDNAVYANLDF

SMILES	inhibition at 1 µM [%]
CCNC(=O)Nc1cc(-c2nc(C(F)(F)F)cs2)c(-c2ccc3c(=O)c(C(=O)NCCCOP(=O)(O)O)cn(CC)c3c2)cn1 [Example 14, 3-{[(1-ethyl-7-{6-[(ethylcarbamoyl)amino]-4-[4-(trifluoromethyl)-1,3-thiazol-2-yl]pyridin-3-yl}-4-oxo-1,4-dihydroquinolin-3-yl)carbonyl]amino}propyl dihydrogen phosphate]	97
CCNC(=O)Nc1cc(-c2nc(C(F)(F)F)cs2)c(-c2cc3c(=O)c(C(=O)O)cn(CCN(C)C)c3cc2OCCN(C)C)cn1 [Example 26, 7-(2-(dimethylamino)ethoxy)-1-(2-(dimethylamino)ethyl)-6-(6-(3-ethylureido)-4-(4-(trifluoromethyl)thiazol-2-yl)pyridin-3-yl)-4-oxo-1,4-dihydroquinoline-3-carboxylic acid]	108
CCNC(=O)Nc1cc(-c2nc(C(F)(F)F)cs2)c(-c2cc3c(=O)c(C(=O)O)cn(CCN(C)C)c3cc2F)cn1 [Example 20, 1-(2-(dimethylamino)ethyl)-6-(6-(3-ethylureido)-4-(4-(trifluoromethyl)thiazol-2-yl)pyridin-3-yl)-7-fluoro-4-oxo-1,4-dihydroquinoline-3-carboxylic acid]	106
CCNC(=O)Nc1cc(-c2nc(-c3ccccc3)cs2)c(-c2cc3c(=O)c(C(=O)O)cn(CCN(C)C)c3cc2OCCN(C)C)cn1 [Example 24, 7-(2-(dimethylamino)ethoxy)-1-(2-(dimethylamino)ethyl)-6-(6-(3-ethylureido)-4-(4-phenylthiazol-2-yl)pyridin-3-yl)-4-oxo-1,4-dihydroquinoline-3-carboxylic acid]	107
CCNC(=O)Nc1cc(-c2nc(C(F)(F)F)cs2)c(-c2ccc3c(c2)c(=O)c(C(=O)OCCOC(=O)C(C)(C)C)cn3C(COC)COC)cn1 [Example 44, 2-(pivaloyloxy)ethyl 1-(1,3-dimethoxypropan-2-yl)-6-(6-(3-ethylureido)-4-(4-(trifluoromethyl)thiazol-2-yl)pyridin-3-yl)-4-oxo-1,4-dihydroquinoline-3-carboxylate]	98
CCNC(=O)Nc1cc(-c2nc(C(F)(F)F)cs2)c(-c2ccc3c(c2)c(=O)c(C(=O)N(C)C)cn3CC2CN3CCN2CC3)cn1 (stereo not drawn) [Example 31, 1-(1,4-diazabicyclo[2.2.2]oct-2-ylmethyl)-6-{6-[(ethylcarbamoyl)amino]-4-[4-(trifluoromethyl)-1,3-thiazol-2-yl]pyridin-3-yl}-N,N-dimethyl-4-oxo-1,4-dihydroquinoline-3-carboxamide]	114
CCNC(=O)Nc1cc(-c2nc(C(F)(F)F)cs2)c(-c2ccc3c(c2)c(=O)c(C(=O)OCc2oc(=O)oc2C)cn3C(COC)COC)cn1 [Example 40, (5-methyl-2-oxo-1,3-dioxo1-4-yl)methyl 1-(1,3-dimethoxypropan-2-yl)-6-(6-(3-ethylureido)-4-(4-(trifluoromethyl)thiazol-2-yl)pyridin-3-yl)-4-oxo-1,4-dihydroquinoline-3-carboxylate]	97
CCNC(=O)Nc1cc(-c2nc(C(F)(F)F)cs2)c(-c2ccc3c(c2)c(=O)c(C(=O)O)cn3CC(C)N2CCOCC2)cn1 (stereo not drawn) [Example 56, 6-(6-(3-Ethylureido)-4-(4-(trifluoromethyl)thiazol-2-yl)pyridin-3-yl)-1-(2-morpholinopropyl)-4-oxo-1,4-dihydroquinoline-3-carboxylic acid]	101
CCNC(=O)Nc1cc(-c2nc(C(F)(F)F)cs2)c(-c2ccc3c(=O)c(C(=O)NCCCOP(=O)(O)O)cn(Cc4noc(C)n4)c3c2)cn1 [Example 13, 3-{[(7-{6[(ethylcarbamoyl)amino]-4-[4-(trifluoromethyl)-1,3-thiazol-2-yl]pyridin-3-yl}-1-[(5-methyl-1,2,4-oxadiazol-3-yl)methyl]-4-oxo-1,4-dihydroquinolin-3-yl)carbonyl]amino}propyl dihydrogen phosphate]	99
CCNC(=O)Nc1cc(-c2nc(C(F)(F)F)cs2)c(-c2ccc3c(c2)c(=O)c(C(=O)O)cn3CCN)cn1 [Example 34, 1-(2-Aminoethyl)-6-{6-[(ethylcarbamoyl)amino]-4-[4-(trifluoromethyl)-1,3-thiazol-2-yl]pyridin-3-yl}-4-oxo-1,4-dihydroquinoline-3-carboxylic acid]	112
CCNC(=O)Nc1cc(-c2nc(C(F)(F)F)cs2)c(-c2ccc3c(c2)c(=O)c(C(=O)OCCOP(=O)(O)O)cn3C(COC)COC)cn1 [Example 19, 2-(phosphonooxy)ethyl 1-(1,3-dimethoxypropan-2-yl)-6-(6-(3-ethylureido)-4-(4-(trifluoromethyl)thiazol-2-yl)pyridin-3-yl)-4-oxo-1,4-dihydroquinoline-3-carboxylate]	110
CCNC(=O)Nc1cc(-c2nc(C(F)(F)F)cs2)c(-c2cc3c(=O)c(C(=O)O)cn(CC)c3cc2N2CCN(C)CC2)cn1 [Example 22, 1-ethyl-6-(6-(3-ethylureido)-4-(4-(trifluoromethyl)thiazol-2-yl)pyridin-3-yl)-7-(4-methylpiperazin-1-yl)-4-oxo-1,4-dihydroquinoline-3-carboxylic acid]	103
CCNC(=O)Nc1cc(-c2nc(C(F)(F)F)cs2)c(-c2ccc3c(c2)c(=O)c(C(=O)NCCCOP(=O)(O)O)cn3C2CC2)cn1 [Example 11, 3-(1-cyclopropyl-6-(6-(3-ethylureido)-4-(4-(trifluoromethyl)thiazol-2-yl)pyridin-3-yl)-4-oxo-1,4-dihydroquinoline-3-carboxamido)propyl dihydrogen phosphate hydrochloride]	108
CCNC(=O)Nc1cc(-c2nc(C(F)(F)F)cs2)c(-c2cc3c(=O)c(C(=O)O)cn(CC)c3cc2OCCN(C)C)cn1 [Example 47, 7-(2-(dimethylamino)ethoxy)-1-ethyl-6-(6-(3-ethylureido)-4-(4-(trifluoromethyl)thiazol-2-yl)pyridin-3-yl)-4-oxo-1,4-dihydroquinoline-3-carboxylic acid]	110
CCNC(=O)Nc1cc(-c2nc([C@H](N)C(C)C)cs2)c(-c2ccc3c(c2)c(=O)c(C(=O)O)cn3[C@H](CO)C(C)(C)C)cn1 [Example 53, 6-(4-(4-((R)-1-amino-2-methylpropyl)thiazol-2-yl)-6-(3-ethylureido)pyridin-3-yl)-1-((S)-1-hydroxy-3,3-dimethylbutan-2-yl)-4-oxo-1,4-dihydroquinoline-3-carboxylic acid]	46
CCNC(=O)Nc1cc(-c2nc(C3CC3)cs2)c(-c2ccc3c(c2)c(=O)c(C(=O)O)cn3[C@H](COP(=O)(O)O)CC(C)C)cn1 [Example 12, (S)-6-(4-(4-cyclopropylthiazol-2-yl)-6-(3-ethylureido)pyridin-3-yl)-1-(4-methyl-1-(phosphonooxy)pentan-2-yl)-4-oxo-1,4-dihydroquinoline-3-carboxylic acid]	104
CCNC(=O)Nc1cc(-c2nc(C(F)(F)F)cs2)c(-c2cc3c(=O)c(C(=O)O)cn(CC(C)N(C)C)c3cc2F)cn1 (stereo not drawn) [Example 51, 1-(2-(dimethylamino)propyl)-6-(6-(3-ethylureido)-4-(4-(trifluoromethyl)thiazol-2-yl)pyridin-3-yl)-7-fluoro-4-oxo-1,4-dihydroquinoline-3-carboxylic acid]	95
CCNC(=O)Nc1cc(-c2nc(-c3ccccc3)cs2)c(-c2cc3c(=O)c(C(=O)O)cn(C[C@@H]4CCCN4CC)c3cc2OCCN(CC)CC)cn1 [Example 49, (S)-7-(2-(diethylamino)ethoxy)-1-((1-ethylpyrrolidin-2-yl)methyl)-6-(6-(3-ethylureido)-4-(4-phenylthiazol-2-yl)pyridin-3-yl)-4-oxo-1,4-dihydroquinoline-3-carboxylic acid]	105
CCCn1cc(C(=O)NCCCOP(=O)(O)O)c(=O)c2ccc(-c3cnc(NC(=O)NCC)cc3-c3nc(C(F)(F)F)cs3)cc21 [Example 17, 3-{[(7-{6-[(ethylcarbamoyl)amino]-4-[4-(trifluoromethyl)-1,3-thiazol-2-yl]pyridin-3-yl}-4-oxo-1-propyl-1,4-dihydroquinolin-3-yl)carbonyl]amino}propyl dihydrogen phosphate]	100
CCNC(=O)Nc1cc(-c2nc(C(F)(F)F)cs2)c(-c2ccc3c(c2)c(=O)c(C(=O)OCCOC(=O)CC)cn3C(COC)COC)cn1 [Example 42, 2-(propionyloxy)ethyl 1-(1,3-dimethoxypropan-2-yl)-6-(6-(3-ethylureido)-4-(4-(trifluoromethyl)thiazol-2-yl)pyridin-3-yl)-4-oxo-1,4-dihydroquinoline-3-carboxylate]	104
CCNC(=O)Nc1cc(-c2nc(C(F)(F)F)cs2)c(-c2cc3c(=O)c(C(=O)O)cn(C[C@@H]4CCCN4CC)c3cc2OCCN(C)C)cn1 [Example 25, 7-(2-(dimethylamino)ethoxy)-1-(((S)-1-ethylpyrrolidin-2-yl)methyl)-6-(6-(3-ethylureido)-4-(4-(trifluoromethyl)thiazol-2-yl)pyridin-3-yl)-4-oxo-1,4-dihydroquinoline-3-carboxylic acid]	98
